Reference: PubChem BioAssay (NCI)
Where “and” joins values, the source holds several entries; their conditions need not be identical. Equal values may be shown once.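 Tested at 5 concentrations; 48 h exposure; 96-well plates; endpoints linearly interpolated, else capped at highest concentration. At the GI50, growth is halved. TGI: concentration producing complete growth inhibition.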

Key:
Experiment in all cases: inhibition of tumour cell growth, NCI panel, 48 h
ACHN renal = test system: ACHN renal
EKVX NSCLC = test system: EKVX NSCLC
HCT-116 colon = test system: HCT-116 colon
IGROV1 ovarian = test system: IGROV1 ovarian
K-562 leukemia = test system: K-562 leukemia
MALME-3M melanoma = test system: MALME-3M melanoma
MCF7 breast = test system: MCF7 breast
OVCAR-5 ovarian = test system: OVCAR-5 ovarian
OVCAR-8 ovarian = test system: OVCAR-8 ovarian
PC-3 prostate = test system: PC-3 prostate

Structure (SMILES)	GI50 (ACHN renal)	TGI (ACHN renal) [µM]	GI50 (EKVX NSCLC) [µM]	TGI (EKVX NSCLC) [µM]	GI50 (HCT-116 colon)	TGI (HCT-116 colon) [µM]	GI50 (IGROV1 ovarian)	TGI (IGROV1 ovarian) [µM]	GI50 (K-562 leukemia)	TGI (K-562 leukemia) [µM]	GI50 (MALME-3M melanoma)	TGI (MALME-3M melanoma) [µM]	GI50 (MCF7 breast)	TGI (MCF7 breast) [µM]	GI50 (OVCAR-5 ovarian)	TGI (OVCAR-5 ovarian) [µM]	GI50 (OVCAR-8 ovarian)	TGI (OVCAR-8 ovarian) [µM]	GI50 (PC-3 prostate)	TGI (PC-3 prostate) [µM]
CCN1C(=O)N(c2ccccc2)C2NN=c3s/c(=C4\C(=O)N(C(C)C)c5ccccc54)c(=O)n3C21 (stereo not given)	1.5 µM	> 57.9	1.83	> 100	2.18 µM	8.24	1.55 µM	> 100	0.518 µM	> 100	1.57 µM	> 100	0.483 µM	> 100	3.38 µM	> 100	2.05 µM	> 100	1.45 µM	> 77.3
COc1ccccc1S(=O)(=O)Nc1ccc2c(c1)CN(C)C(=O)N2	4.76 µM and 8.29 µM	> 100	20.3	> 100	4.6 µM and 4.38 µM	> 100	6.42 µM and 5.7 µM	> 100	8.64 µM and 5.18 µM	> 100	4.35 µM and 1.75 µM	> 100	1.87 µM and 1.48 µM	> 100	9.5 µM and 11.7 µM	> 100	10.1 µM and 10.8 µM	> 100	10.7 µM and 16.3 µM	> 100
COc1ccc2c(c1)[n+](=O)c(C(=O)/C=C/c1cc(OC)c(OC)c(OC)c1)c(C)n2[O-]	13.5 µM	28.8	1.97	15.1	16.9 µM	65.5	20.7 µM	42	> 100 µM	> 100	19.1 µM	58.7	18 µM	88.4	20.8 µM	62.9	6.03 µM	30.3	27.3 µM	> 100
COc1ccc(C(=O)c2cc3c(N)c(C(=O)Nc4cccc(Cl)c4C)sc3nc2C)cc1	0.202 µM	> 25	0.134	> 25	0.0989 µM	> 25	0.145 µM	> 25	0.0901 µM	> 25	0.205 µM	> 25	0.0932 µM	> 25	0.266 µM	> 25	0.125 µM	> 25	0.122 µM	> 25
COc1ccc(-c2cc(-c3cc(OC)c(OC)c(OC)c3)c(C#N)c(N3CCOCC3)n2)cc1O	3.49 µM	> 100	8.95	> 100	3.36 µM	> 83.1	19 µM	> 100	2.47 µM	> 24.1	> 100 µM	> 100	3.2 µM	> 100	–	> 100	6.11 µM	> 100	3.6 µM	> 100
CCCCn1sc(=O)n(Cc2ccc(CNC(=O)OCc3ccc4c(Br)cc(Br)c(O)c4n3)cc2)c1=O	0.505 µM	> 100	> 40.6	> 100	0.344 µM	> 100	0.531 µM	> 100	0.434 µM	> 100	0.831 µM	> 100	0.369 µM	> 100	> 24.7 µM	> 100	0.415 µM	> 81.4	0.651 µM	> 100
NC(=O)/C=C/NC(=O)/C=N\O	–	> 100	–	> 100	–	> 100	–	> 100	–	> 100	–	> 100	–	> 100	–	> 100	–	> 100	–	> 100
CCc1nc(N)nc(N)c1-c1ccc(NCCc2ccccc2)c([N+](=O)[O-])c1	–	37	–	54	–	36.7	–	47.8	–	> 36.3	–	9.74	–	33.6	–	> 73.4	–	89	–	> 71.6
CCCCCCCCCCCCOC1C(CNC(=O)C2OC3OC(C)(C)OC3C2NC(=O)CN2CCCCCC2)OC2OC(C)(C)OC21 (stereo not given)	10.7 µM	25.3	8.15	20.7	4.06 µM	12.8	5.03 µM	15.2	3.43 µM	10.9	1.99 µM	4.1	3.7 µM	14.3	6.44 µM	19.5	11 µM	25.5	4.57 µM	15.8
O=C(NCCCCCCCCNC(=O)c1cccc2ccccc12)c1cccc2ccccc12	–	60.8	–	> 91.7	–	> 83.4	–	> 76.1	–	> 100	–	> 100	–	> 100	–	> 100	–	79.5	–	> 100
CSc1ccc(/C=C/c2ccnc3ccccc23)cc1	–	29.5	–	22.3	–	22.3	–	39.4	–	30.9	–	32.6	–	28.6	–	35	–	28.8	–	19.2
COc1ccc(Cn2cc3c(c2-c2cc(OC)c(OC)c(OC)c2)CCc2cnoc2-3)cc1[N+](=O)[O-]	2.88 µM	> 100	1.43	> 100	0.587 µM	> 100	0.82 µM	51.5	0.358 µM	> 100	0.387 µM	> 100	0.454 µM	> 100	5.08 µM	> 100	3.35 µM	> 100	1.39 µM	> 100
COc1cnc2c(c1)C(=O)c1c-2n(CCCN2CCCC2)c(=O)c2cc(F)ccc12	0.155 µM	0.461	0.407	4.24	0.153 µM	0.663	0.363 µM	3.34	0.263 µM	1.55	0.452 µM	1.73	0.0482 µM	3.88	0.41 µM	3.23	0.206 µM	1.05	0.42 µM	12.8
CN(CCCl)c1ccc(/C=C/C2=[N+](C)c3ccccc3C2(C)C)cc1	2.19 µM	10.6	0.863	14.9	0.307 µM	12.2	1.73 µM	18.6	0.491 µM	83.5	0.575 µM	4.3	0.516 µM	10.6	3.71 µM	17.1	0.353 µM	12	0.243 µM	10.6
CC/C(C)=C1\OC(=O)C(C)C(O)C(Cc2cccnc2)NC(=O)C(NC(=O)c2ncccc2O)C(C)OC1=O (stereo not given)	–	> 100	–	> 100	–	> 100	–	> 100	–	> 100	–	> 100	–	> 100	–	> 100	–	> 100	–	> 100
Cc1ccc(S(=O)(=O)Cc2nc(-c3ccc(C(=O)NCc4cccnc4)cc3)oc2C)cc1	7.06 µM	> 100	> 100	> 100	< 0.01 µM	> 100	0.189 µM	> 100	< 0.01 µM	> 100	27.5 µM	> 100	3.93 µM	> 100	–	> 100	< 0.01 µM	> 100	0.224 µM	> 100
Nc1nc(N)c2nc(CNc3ccc(C(=O)NC(CCCNC(=O)c4ccccc4C(=O)O)C(=O)O)cc3)cnc2n1 (stereo not given)	0.00181 µM	> 100	–	> 100	0.00028 µM	> 100	0.0249 µM	> 100	< 0.0242 µM and 0.000381 µM	> 100	–	> 100	0.00363 µM	> 100	0.00196 µM	> 100	0.0015 µM	> 100	–	> 100
